Reference: patent US20230097866A1, “BACTERIAL TOPOISOMERASE INHIBITORS DERIVED FROM ISOMANNIDE” (Ohio State Innovation Foundation, priority 2020, published 2023)
Values after ≈ are worked out from the molar mass of the structure shown. Where two headings read alike, the source gives them in different places.

Tests used:
[1] = test system: Streptococcus pneumoniae LSI-4246; experiment: MIC panel (Laboratory Specialists, Inc.), S. pneumoniae LSI-4246; format: cell-based; conditions: LSI4246, Cmpd. 6, penicillin-resistant strain
[2] = test system: Enterococcus faecium DRL-4193; experiment: MIC panel (Laboratory Specialists, Inc.), E. faecium DRL-4193; format: cell-based; conditions: DRL4193, Cmpd. 6, vancomycin-susceptible strain
[3] = test system: Enterococcus faecium LSI-3340; experiment: MIC panel (Laboratory Specialists, Inc.), E. faecium LSI-3340; format: cell-based; conditions: LSI3340, Cmpd. 6, vancomycin-resistant strain
[4] = test system: Acinetobacter baumannii LSI-2957; experiment: MIC panel (Laboratory Specialists, Inc.), A. baumannii; format: cell-based; conditions: LSI2957, Cmpd. 6, CLSI broth microdilution
[5] = molecular target: hERG (Homo sapiens, UniProt Q12809); experiment: hERG IC50, IonWorks Barracuda (Charles River); conditions: 6 versus 24
Excerpt: The design of these isomannide-detived NBTIs focused on enhanced polarity and modulation of basicity through the two electronegative oxygen atoms in the linker.

[6] = molecular target: T1, Nav 1.5 Human Sodium Ion Channel (Homo sapiens, UniProt Q14524); experiment: Nav 1.5 QPatch CiPA assay; format: cell-based; conditions: mean, duplicate
T1 construct: expressed in transfected cells
T1 sequence (Q14524 whole entry): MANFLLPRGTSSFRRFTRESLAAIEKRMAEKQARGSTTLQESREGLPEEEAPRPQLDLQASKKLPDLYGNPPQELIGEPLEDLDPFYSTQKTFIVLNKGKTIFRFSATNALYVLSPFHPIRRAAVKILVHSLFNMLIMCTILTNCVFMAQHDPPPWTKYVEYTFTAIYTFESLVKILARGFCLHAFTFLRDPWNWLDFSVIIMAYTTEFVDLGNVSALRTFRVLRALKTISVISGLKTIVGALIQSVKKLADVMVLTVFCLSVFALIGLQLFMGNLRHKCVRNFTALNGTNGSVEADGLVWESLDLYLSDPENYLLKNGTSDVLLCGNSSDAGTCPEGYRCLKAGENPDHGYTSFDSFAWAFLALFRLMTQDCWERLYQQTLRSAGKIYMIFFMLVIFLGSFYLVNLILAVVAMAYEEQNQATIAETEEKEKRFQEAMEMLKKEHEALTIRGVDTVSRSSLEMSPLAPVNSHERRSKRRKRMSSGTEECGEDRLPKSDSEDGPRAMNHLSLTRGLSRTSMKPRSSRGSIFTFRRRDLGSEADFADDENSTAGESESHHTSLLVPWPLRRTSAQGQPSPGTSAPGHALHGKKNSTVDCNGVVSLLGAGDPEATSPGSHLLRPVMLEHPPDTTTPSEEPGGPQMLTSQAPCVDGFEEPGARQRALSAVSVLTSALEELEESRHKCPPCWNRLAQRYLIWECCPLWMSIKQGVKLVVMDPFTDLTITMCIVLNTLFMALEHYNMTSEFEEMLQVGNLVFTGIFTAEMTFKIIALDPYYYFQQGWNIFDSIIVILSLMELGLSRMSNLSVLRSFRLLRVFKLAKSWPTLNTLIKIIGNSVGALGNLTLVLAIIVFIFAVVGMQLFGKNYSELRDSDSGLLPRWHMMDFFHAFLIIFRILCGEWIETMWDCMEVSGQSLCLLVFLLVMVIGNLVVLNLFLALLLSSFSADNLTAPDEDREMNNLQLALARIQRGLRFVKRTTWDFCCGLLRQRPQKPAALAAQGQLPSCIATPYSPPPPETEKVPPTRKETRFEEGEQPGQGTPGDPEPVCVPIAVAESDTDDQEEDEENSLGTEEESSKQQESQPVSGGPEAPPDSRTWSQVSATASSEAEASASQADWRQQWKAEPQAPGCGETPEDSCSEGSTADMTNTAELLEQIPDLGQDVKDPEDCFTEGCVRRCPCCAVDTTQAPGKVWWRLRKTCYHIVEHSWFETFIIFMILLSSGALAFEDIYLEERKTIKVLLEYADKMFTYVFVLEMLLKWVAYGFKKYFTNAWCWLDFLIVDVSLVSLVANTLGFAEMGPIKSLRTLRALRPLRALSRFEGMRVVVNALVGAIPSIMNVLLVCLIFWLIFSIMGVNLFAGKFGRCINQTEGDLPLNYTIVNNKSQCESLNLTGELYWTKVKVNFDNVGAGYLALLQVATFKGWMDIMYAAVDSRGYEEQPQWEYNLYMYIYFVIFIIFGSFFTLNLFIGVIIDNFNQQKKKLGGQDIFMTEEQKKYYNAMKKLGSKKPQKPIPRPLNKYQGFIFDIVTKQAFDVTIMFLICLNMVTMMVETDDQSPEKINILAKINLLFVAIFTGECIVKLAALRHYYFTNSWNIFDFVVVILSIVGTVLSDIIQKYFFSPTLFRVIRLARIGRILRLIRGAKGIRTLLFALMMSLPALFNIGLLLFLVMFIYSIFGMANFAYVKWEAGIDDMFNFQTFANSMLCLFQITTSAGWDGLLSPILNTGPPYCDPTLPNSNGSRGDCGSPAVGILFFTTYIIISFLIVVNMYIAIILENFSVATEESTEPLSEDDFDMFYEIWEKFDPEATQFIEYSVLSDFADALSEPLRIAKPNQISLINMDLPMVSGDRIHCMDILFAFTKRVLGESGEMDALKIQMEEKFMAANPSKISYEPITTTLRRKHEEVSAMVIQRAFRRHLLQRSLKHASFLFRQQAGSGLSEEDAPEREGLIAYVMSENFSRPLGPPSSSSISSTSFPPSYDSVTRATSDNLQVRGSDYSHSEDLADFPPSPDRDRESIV
Excerpt: (§1) Early drug discovery programs commonly assess hERG inhibition as the only indicator of potential cardiovascular safety concerns. Researchers have recently recommended a more rigorous evaluation of multiple cardiac ion channels to provide a more comprehensive cardiovascular risk assessment (Fermini, B., et al., A New Perspective in the Field of Cardiac Safety Testing through the Comprehensive In Vitro Proarrhythmia Assay Paradigm. J. Biomolec. Screening 2016, 21, 1-11). Given the promising initial results for 6, further evaluation was undertaken (in duplicate) in a Comprehensive in vitro Proarrhythmia Assay (CiPA) eight assay panel run on the QPatch HT (Sophion, Denmark) automated patch clamp system at three concentrations (3, 30, and 100 μM). All data were filtered for seal quality, seal drop, and current amplitude. A stock solution of the test compound at 30 mM concentration was prepared in DMSO.
(§2) The parameters measured were the maximum inward current evoked on stepping to −15 mV from the test pulse. The peak current amplitude was calculated before and after compound addition and the amount of block was assessed by dividing the Test compound current amplitude by the Control current amplitude. Control is the mean hNav1.5 current amplitude collected 15 seconds at the end of the control; Test Compound is the mean hNav1.5 current amplitude collected in the presence of test compound at each concentration. The positive control compound was tetracaine.

[7] = molecular target: T2, hKCNQ1/hminK (Homo sapiens, UniProt P51787); experiment: KCNQ1/hminK QPatch CiPA assay; format: cell-based; conditions: mean, duplicate, read-out: % Inhibition KCNQ1 (peak current)
T2 construct: expressed in transfected cells
Excerpt: as §1
as §2, with “outward” for “inward”, “60” for “−15”, “hKCNQ1/hminK” for “hNav1.5”, “control” for “control compound”, “chromanol 293B.” for “tetracaine.”

[8] = molecular target: T3, Nav1.5 Late Current Human Ion Channel (Homo sapiens, UniProt Q14524); experiment: Nav1.5 late current agonist QPatch CiPA assay; format: cell-based; conditions: normalized to ATXII response
T3 construct: expressed in transfected cells
T3 sequence (Q14524 whole entry): as above
Excerpt: as §1
The parameters measured were the degree of activation of inward current (charge) evoked on stepping to −15 mV from the test pulse. The peak and ramp current (charge) amplitude was calculated before and after compound addition and the amount of current (charge) was assessed by dividing the Test compound current (charge) by the Control current (charge). Control is the mean hNav1.5 late current (charge) collected 15 seconds at the end of the control; Test Compound is the mean hNav1.5 current (charge) collected in the presence of test compound at each concentration. Changes in charge were normalized to the maximum response of the EC50 of ATXII (positive control).

[9] = test system: HepaRG cells; experiment: ATP viability cytotoxicity assay in HepaRG cells; format: cell-based; conditions: 24 hours
Procedure: The cytotoxicity of compound 6 was measured using an ATP viability assay in HepaRG cells, with a five-point concentration-response curve (Table 8).
HepaRG cells were plated in a collagen coated 96-well plate overnight and treated the next day with test compounds and controls for 24 hours. Tamoxifen was used as a positive control compound for cytotoxicity (25 μM). After 24 hours, the plate was equilibrated to room temperature for 30 minutes and Cell Titer-Glo Reagent was added. Luminescence was measured using an EnSpire multimode plate reader. Data were reported as % cytotoxi city compared to vehicle treated control.
Cytotoxicity was determined by calculating the percentage of vehicle control: […]

[10] = in vitro; format: in vitro ADME; conditions: pH 7.4, 1 μM, read-out: microsomal half-life
Procedure: The test compound at 1 μM was pre-incubated with pooled liver microsomes in phosphate buffer (pH 7.4) for 5 minutes in a 37° C. shaking water bath. The reaction was initiated by adding NADPH-generating mixture (NADP+, glucose-6-phospate, glucose-6-phosphate dehydrogenase) and incubated for 0, 15, 30, 45, and 60 minutes. The reaction was stopped by transferring aliquots of the incubation mixture to acetonitrile/methanol. Samples were centrifuged, and supernatants analyzed by LCMS. The half-life was calculated from the slope of the initial linear range of the logarithmic curve of compound remaining %) vs. time, assuming first order kinetics. In addition, the intrinsic clearance (Clint) was calculated from the half-life.

[11] = molecular target: T4, CYP2C19 (Homo sapiens, UniProt P33261); experiment: CYP450 inhibition in human liver microsomes, CYP2C19; format: in vitro ADME; conditions: 10 μM
T4 construct: incubated with human liver microsomes (mixed gender, pool of 50 donors, 0.1 mg/mL); from tissue; host or cells: human liver microsomes, pool of 50 donors
T4 sequence (P33261 whole entry): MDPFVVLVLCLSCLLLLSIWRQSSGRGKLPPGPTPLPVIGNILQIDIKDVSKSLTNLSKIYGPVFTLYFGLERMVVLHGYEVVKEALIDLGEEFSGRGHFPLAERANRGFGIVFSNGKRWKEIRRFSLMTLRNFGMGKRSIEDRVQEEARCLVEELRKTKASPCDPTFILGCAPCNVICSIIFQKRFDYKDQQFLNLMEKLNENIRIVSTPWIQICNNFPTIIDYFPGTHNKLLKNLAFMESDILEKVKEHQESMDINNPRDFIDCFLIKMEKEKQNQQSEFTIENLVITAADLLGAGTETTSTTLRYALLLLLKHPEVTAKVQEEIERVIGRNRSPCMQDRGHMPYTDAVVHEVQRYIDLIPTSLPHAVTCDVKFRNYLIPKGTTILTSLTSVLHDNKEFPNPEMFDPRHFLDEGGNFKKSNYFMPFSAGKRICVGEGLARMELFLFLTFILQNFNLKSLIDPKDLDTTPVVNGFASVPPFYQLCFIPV
Procedure: CYP450 inhibition assays was conducted using individual enzyme substrates and inhibitors instead of a cocktail to avoid interferences. CYP450 isoforms tested included the following: CYP1A2, CYP2B6, CYP2C8, CYP2C9, CYP2C19, CYP2D6, and CYP3A4. Each test compound was screened at a final concentration of 10 μM. Each test compound was incubated with human liver microsomes (mixed gender, pool of 50 donors, 0.1 mg/mL), CYP450-selective probe substrates, and co-factors (NADPH, MgCl2) in phosphate buffer (pH 7.4) for 10-30 min in a 96-well plate at 37° C. The reactions were stopped by transferring the reaction mixture to acetonitrile/methanol. Samples were mixed and centrifuged, and the supernatants analyzed by LC-MS/MS to quantify percent inhibition relative to vehicle control.

COc1ccc2ncc(F)c(CC[C@@]3(O)CO[C@@H]4[C@@H](NCc5cc6c(cn5)OCCO6)CO[C@@H]43)c2n1 [Compound 6, (3R, 3aS,6S,6aR)-6-(((2,3-dihydro-[1,4]dioxino[2,36-c]pyridin-7-yl)methyl)amnino)-3-(2-(3-fluoro-6-methoxy-1,5-naphthyridin-4-yl)ethyl)hexahydrofuro[3,2-b]furan-3-ol]
MIC [1]: ≤ 0.12 µg/mL | MIC [2]: 2 µg/mL (≈ 4.01 µM) | MIC [3]: 0.25 µg/mL (≈ 0.501 µM) | MIC [4]: ≤ 0.12 µg/mL | hERG IC50 higher than benzodioxine 24 [5]: ca. 3 fold | % Inhibition Nav1.5 (peak current) ([6]; 3 μM): 6.1% | % Inhibition Nav1.5 (peak current) ([6]; 30 μM): 16.7% | % Inhibition Nav1.5 (peak current) ([6]; 100 μM): 21.1% | inhibition at 3 µM ([7]; 3 μM): -2.9% | inhibition at 30 µM ([7]; 30 μM): 1.5% | inhibition at 100 µM ([7]; 100 μM): 22.1% | Navi1.5 Late (agonist - activation of late current) ([8]; 3 μM): 3.4% | Navi1.5 Late (agonist - activation of late current) ([8]; 30 μM): 7.7% | Navi1.5 Late (agonist - activation of late current) ([8]; 100 μM): 17.0% | % Cytotoxicity ([9]; 0.01 μM): 6% | % Cytotoxicity ([9]; 0.1 μM): 4% | % Cytotoxicity ([9]; 1 μM): 9% | % Cytotoxicity ([9]; 10 μM): 8% | half-life ([10]; human microsomes): 6 min | half-life ([10]; mouse microsomes): 3 min | CYP2C19 inhibition [11]: Less than 50%
